Measured values published in US20100267561A1, “HERBICIDAL PYRIDAZINONE DERIVATIVES” (priority 2007, published 2010).

What was measured:
Assay type in all cases: in vivo
[1] = system: spring barley (Hordeum vulgare); assay: Test C pre-/postemergence plant response
Summary of the method: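 Test chemicals in a non-phytotoxic solvent with surfactant were applied preemergence, and some were also applied postemergence to plants 2–18 cm tall (1- to 4-leaf stage). Visual ratings against controls were made after 15–25 days in a controlled environment, on a 0–100 scale where 100 means complete control.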

[2] = system: itchgrass (Rottboellia cochinchinensis); assay: Test E pre-/postemergence plant response; settings: scale 0 to 100
Source text: (§1) Seeds of plant species selected from bermudagrass (Cynodon dactylon), Surinam grass (Brachiaria decumbens), large crabgrass (Digitaria sanguinalis), green foxtail (Setaria viridis), goosegrass (Eleusine indica), johnsongrass (Sorghum halepense), kochia (Kochia scoparia), pitted morningglory (Ipomoea lacunosa), purple nutsedge (Cyperus rotundus), common ragweed (Ambrosia elation), black mustard (Brassica nigra), guineagrass (Panicum maximum), dallisgrass (Paspalum dilatatum), barnyardgrass (Echinochloa crus-galli), southern (S.) sandbur (Cenchrus echinatus), common sowthistle (Sonchus oleraceous), prickly sida (Sida spinosa), Italian ryegrass (Lolium multiflorum), common purslane (Portulaca oleracea), broadleaf signalgrass (Brachiaria platyphylla), common groundsel (Senecio vulgaris), common chickweed (Stellaria media), Virginia (V.) dayflower (Commelina virginica), tropical (T.) spiderwort (Commelina benghalensis), annual bluegrass (Poa annua), naked crabgrass (Digitaria nuda), itchgrass (Rottboellia cochinchinensis), quackgrass (Elytrigia repens), Canada horseweed (Conyza canadensis), field bindweed (Convolvulus arvensis), spanishneedles (Bidens bipinnata), common mallow (Malva sylvestris) and Russian thistle (Salsola kali) were planted and treated preemergence with test chemicals formulated in a non-phytotoxic solvent mixture which included a surfactant. At the same time, plants selected from these weed species were treated with postemergence applications of some of the test chemicals formulated in the same manner. Plants ranged in height from 2 to 18 cm (1- to 4-leaf stage) for postemergence treatments.
(§2) Treated plants and controls were maintained in a greenhouse for 14 to 21 days, after which time all species were compared to controls and visually evaluated. Plant response ratings, summarized in Table E, are based on a scale of 0 to 100 where 0 is no effect and 100 is complete control. A dash (-) response means no test result.

[3] = system: barnyardgrass (Echinochloa crus-galli); assay: Test E pre-/postemergence plant response; settings: scale 0 to 100
Source text: as §1, §2

[4] = system: johnsongrass (Sorghum halepense); assay: Test E pre-/postemergence plant response; settings: scale 0 to 100
Source text: as §1, §2

[5] = system: common chickweed (Stellaria media); assay: Test E pre-/postemergence plant response; settings: Postemergence, scale 0 to 100
Source text: as §1, §2

[6] = system: common mallow (Malva sylvestris); assay: Test E pre-/postemergence plant response; settings: Postemergence, scale 0 to 100
Source text: as §1, §2

[7] = system: broadleaf signalgrass (Brachiaria platyphylla); assay: Test E pre-/postemergence plant response; settings: scale 0 to 100
Source text: as §1, §2

[8] = system: annual bluegrass (Poa annua); assay: Test E pre-/postemergence plant response; settings: scale 0 to 100
Source text: as §1, §2

[9] = system: dallisgrass (Paspalum dilatatum); assay: Test E pre-/postemergence plant response; settings: scale 0 to 100
Source text: as §1, §2

[10] = system: naked crabgrass (Digitaria nuda); assay: Test E pre-/postemergence plant response; settings: scale 0 to 100
Source text: as §1, §2

[11] = system: green foxtail (Setaria viridis); assay: Test E pre-/postemergence plant response; settings: scale 0 to 100
Source text: as §1, §2

[12] = system: bermudagrass (Cynodon dactylon); assay: Test E pre-/postemergence plant response; settings: scale 0 to 100
Source text: as §1, §2

[13] = Preemergence, 8 g ai/ha, scale 0 to 100 (0 no effect, 100 complete control)
[14] = Preemergence, 16 g ai/ha, scale 0 to 100 (0 no effect, 100 complete control)
[15] = Preemergence, 31 g ai/ha, scale 0 to 100 (0 no effect, 100 complete control)
[16] = Preemergence, 62 g ai/ha, scale 0 to 100, 0 no effect, 100 complete control

## Cc1cn(-c2ccc(Cl)cc2)nc1-c1c(O)cnn(C)c1=O [Compound 30, 4-[1-(4-chlorophenyl)-4-methyl-1H-pyrazol-3-yl]-5-hydroxy-2-methyl-3(2H)-pyridazinone]
[1]; [13]
  Plant response rating, Barley, Spring: 0
[1]; [14]
  Plant response rating, Barley, Spring: 0
[1]; [15]
  Plant response rating, Barley, Spring: 30
[1]; [16]
  Plant response rating, Barley, Spring: 50

## CCc1cc(-c2ccc(Cl)cc2)nn1-c1c(OC(=O)OC(C)C)cnn(C)c1=O [Compound 41]
[1]; [13]
  Plant response rating, Barley, Spring: 0
[1]; [14]
  Plant response rating, Barley, Spring: 65
[1]; [15]
  Plant response rating, Barley, Spring: 75
[1]; [16]
  Plant response rating, Barley, Spring: 90

## Cn1ncc(O)c(-c2nn(-c3ccc(Cl)cc3)cc2Cl)c1=O [Compound 28]
[1]; [13]
  Plant response rating, Barley, Spring: 0
[1]; [14]
  Plant response rating, Barley, Spring: 15
[1]; [15]
  Plant response rating, Barley, Spring: 15
[1]; [16]
  Plant response rating, Barley, Spring: 25

## CCc1cc(-c2ccc(Cl)cc2)nn1-c1c(OC(=O)C(C)(C)C)cnn(C)c1=O [Compound 40]
[2]; 16 g ai/ha, Preemergence
  Plant response rating, Itchgrass: 60
[2]; 31 g ai/ha, Preemergence
  Plant response rating, Itchgrass: 75
[2]; 62 g ai/ha, Preemergence
  Plant response rating, Itchgrass: 85
[2]; Postemergence, 8 g ai/ha
  Plant response rating, Itchgrass: 40
[2]; Postemergence, 16 g ai/ha
  Plant response rating, Itchgrass: 40
[2]; Postemergence, 31 g ai/ha
  Plant response rating, Itchgrass: 80
[2]; Postemergence, 62 g ai/ha
  Plant response rating, Itchgrass: 80
[3]; 8 g ai/ha, Preemergence
  Plant response rating, Barnyardgrass: 75
[3]; 16 g ai/ha, Preemergence
  Plant response rating, Barnyardgrass: 95
[3]; 31 g ai/ha, Preemergence
  Plant response rating, Barnyardgrass: 100
[3]; 62 g ai/ha, Preemergence
  Plant response rating, Barnyardgrass: 100
[3]; Postemergence, 8 g ai/ha
  Plant response rating, Barnyardgrass: 100
[3]; Postemergence, 16 g ai/ha
  Plant response rating, Barnyardgrass: 100
[3]; Postemergence, 31 g ai/ha
  Plant response rating, Barnyardgrass: 100
[3]; Postemergence, 62 g ai/ha
  Plant response rating, Barnyardgrass: 100
[4]; 16 g ai/ha, Preemergence
  Plant response rating, Johnsongrass: 75
[4]; 31 g ai/ha, Preemergence
  Plant response rating, Johnsongrass: 75
[4]; 62 g ai/ha, Preemergence
  Plant response rating, Johnsongrass: 98
[4]; Postemergence, 8 g ai/ha
  Plant response rating, Johnsongrass: 60
[4]; Postemergence, 16 g ai/ha
  Plant response rating, Johnsongrass: 60
[4]; Postemergence, 31 g ai/ha
  Plant response rating, Johnsongrass: 90
[4]; Postemergence, 62 g ai/ha
  Plant response rating, Johnsongrass: 98
[5]; 8 g ai/ha
  Plant response rating, Chickweed: 0
[5]; 16 g ai/ha
  Plant response rating, Chickweed: 0
[5]; 31 g ai/ha
  Plant response rating, Chickweed: 0
[6]; 8 g ai/ha
  Plant response rating, Mallow: 0
[6]; 16 g ai/ha
  Plant response rating, Mallow: 0
[6]; 31 g ai/ha
  Plant response rating, Mallow: 0
[6]; 62 g ai/ha
  Plant response rating, Mallow: 0
[7]; 16 g ai/ha, Preemergence
  Plant response rating, Signalgrass: 95
[7]; 31 g ai/ha, Preemergence
  Plant response rating, Signalgrass: 98
[7]; 62 g ai/ha, Preemergence
  Plant response rating, Signalgrass: 100
[7]; Postemergence, 8 g ai/ha
  Plant response rating, Signalgrass: 75
[7]; Postemergence, 16 g ai/ha
  Plant response rating, Signalgrass: 90
[7]; Postemergence, 31 g ai/ha
  Plant response rating, Signalgrass: 95
[7]; Postemergence, 62 g ai/ha
  Plant response rating, Signalgrass: 100
[8]; 8 g ai/ha, Preemergence
  Plant response rating, Bluegrass: 60
[8]; 16 g ai/ha, Preemergence
  Plant response rating, Bluegrass: 90
[8]; 62 g ai/ha, Preemergence
  Plant response rating, Bluegrass: 95
[8]; Postemergence, 8 g ai/ha
  Plant response rating, Bluegrass: 0
[8]; Postemergence, 16 g ai/ha
  Plant response rating, Bluegrass: 0
[8]; Postemergence, 31 g ai/ha
  Plant response rating, Bluegrass: 15
[8]; Postemergence, 62 g ai/ha
  Plant response rating, Bluegrass: 15
[9]; 8 g ai/ha, Preemergence
  Plant response rating, Dallisgrass: 80
[9]; 16 g ai/ha, Preemergence
  Plant response rating, Dallisgrass: 95
[9]; 31 g ai/ha, Preemergence
  Plant response rating, Dallisgrass: 100
[9]; 62 g ai/ha, Preemergence
  Plant response rating, Dallisgrass: 100
[9]; Postemergence, 8 g ai/ha
  Plant response rating, Dallisgrass: 65
[9]; Postemergence, 16 g ai/ha
  Plant response rating, Dallisgrass: 75
[9]; Postemergence, 31 g ai/ha
  Plant response rating, Dallisgrass: 80
[9]; Postemergence, 62 g ai/ha
  Plant response rating, Dallisgrass: 95
[10]; 8 g ai/ha, Preemergence
  Plant response rating, Crabgrass, Naked: 90
[10]; 16 g ai/ha, Preemergence
  Plant response rating, Crabgrass, Naked: 90
[10]; 31 g ai/ha, Preemergence
  Plant response rating, Crabgrass, Naked: 100
[10]; 62 g ai/ha, Preemergence
  Plant response rating, Crabgrass, Naked: 100
[10]; Postemergence, 8 g ai/ha
  Plant response rating, Crabgrass, Naked: 50
[10]; Postemergence, 16 g ai/ha
  Plant response rating, Crabgrass, Naked: 75
[10]; Postemergence, 31 g ai/ha
  Plant response rating, Crabgrass, Naked: 95
[10]; Postemergence, 62 g ai/ha
  Plant response rating, Crabgrass, Naked: 100
[11]; 8 g ai/ha, Preemergence
  Plant response rating, Foxtail, Green: 40
[11]; 16 g ai/ha, Preemergence
  Plant response rating, Foxtail, Green: 75
[11]; 31 g ai/ha, Preemergence
  Plant response rating, Foxtail, Green: 98
[11]; 62 g ai/ha, Preemergence
  Plant response rating, Foxtail, Green: 100
[11]; Postemergence, 8 g ai/ha
  Plant response rating, Foxtail, Green: 70
[11]; Postemergence, 16 g ai/ha
  Plant response rating, Foxtail, Green: 80
[11]; Postemergence, 31 g ai/ha
  Plant response rating, Foxtail, Green: 95
[11]; Postemergence, 62 g ai/ha
  Plant response rating, Foxtail, Green: 98
[12]; 8 g ai/ha, Preemergence
  Plant response rating, Bermudagrass: 40
[12]; 16 g ai/ha, Preemergence
  Plant response rating, Bermudagrass: 80
[12]; 31 g ai/ha, Preemergence
  Plant response rating, Bermudagrass: 98
[12]; 62 g ai/ha, Preemergence
  Plant response rating, Bermudagrass: 100
[12]; Postemergence, 8 g ai/ha
  Plant response rating, Bermudagrass: 30
[12]; Postemergence, 16 g ai/ha
  Plant response rating, Bermudagrass: 50
[12]; Postemergence, 31 g ai/ha
  Plant response rating, Bermudagrass: 60
[12]; Postemergence, 62 g ai/ha
  Plant response rating, Bermudagrass: 70

## Cc1cc(-c2ccc(Cl)cc2)nn1-c1c(OC(=O)OCC(C)C)cnn(C)c1=O [Compound 57]
[1]; Postemergence, 8 g ai/ha, scale 0 to 100, 0 no effect, 100 complete control
  Plant response rating, Barley, Spring: 0
[1]; Postemergence, 16 g ai/ha, scale 0 to 100, 0 no effect, 100 complete control
  Plant response rating, Barley, Spring: 20
[1]; Postemergence, 31 g ai/ha, scale 0 to 100, 0 no effect, 100 complete control
  Plant response rating, Barley, Spring: 30
[1]; Postemergence, 62 g ai/ha, scale 0 to 100, 0 no effect, 100 complete control
  Plant response rating, Barley, Spring: 40
[1]; [13]
  Plant response rating, Barley, Spring: 0
[1]; [14]
  Plant response rating, Barley, Spring: 0
[1]; [15]
  Plant response rating, Barley, Spring: 20
[1]; [16]
  Plant response rating, Barley, Spring: 40
